The values below are quoted from earlier work in patent US20050064019A1, “Impregnated, flexible, rawhide pet chews containing antimicrobially active chlorhexdine” (priority 2003, published 2005).

The conditions of series [1]: two years continuous use.
In another series the test system is bacterial spores. As to conditions: except at elevated temperatures.
The conditions of series [2]: rat, in vivo.

`[H]/N=C(\N/C(=N/[H])NCCCCCCNC(=N)NC(=N)Nc1ccc(Cl)cc1)Nc1ccc(Cl)cc1` [chlorhexidine]: the Solubility in water entry is “practically insoluble in water”. Moreover, the “Side effects in long term trials” value in series [1] was “no systemic or serious local side effects”. Also, in the series with bacterial spores, the “Activity against bacterial spores” value is “inactive”. Besides, the “Activity against fungal spores” value with fungal spores is “inactive”. The “Tolerance of chlorhexidine in drinking water” value in series [2] is “without detectable interference with growth and reproduction”.
